Test results as given in patent US20070128217A1 (priority 2003, published 2007).

How the values were obtained:
[1] = tested on: control sera (pooled serum of ten healthy LUMC hospital workers; commercial negative donor pooled serum from the Dutch bloodbank); type: binding, human; parameters: Binding of Control serum LUMC to linear peptides / Binding of Control serum Blood-bank to linear peptides / Binding of Control serum LUMC to looped peptides / Binding of Control Serum Blood-Bank to Looped peptides / Binding of Control serum LUMC to linear peptides of the protein M of SARS-CoV Urbani / Binding of Control serum Blood-bank to linear peptides of the protein M of SARS-CoV Urbani / Binding of Control serum LUMC to looped peptides of the protein M of SARS-CoV Urbani / Binding of Control Serum Blood-Bank to Looped peptides of the protein M of SARS-CoV Urbani: unit not given here
[2] = tested on: rabbit serum obtained by immunizing a rabbit with the SARS-CoV strain Frankfurt 1; type: binding; parameters: Binding of a rabbit serum to linear peptides / Binding of a rabbit serum to looped peptides / Rabbit serum linear peptides / Rabbit serum looped peptides / Binding of a rabbit serum to linear peptides of protein N of SARS-CoV Urbani (Rabbit serum linear peptides) / Binding of a rabbit serum to looped/cyclic peptides of protein N of SARS-CoV Urbani (Rabbit serum looped peptides): unit not given here
[3] = tested on: antibodies in sera from SARS patients (sera 1a, 1b, 2, 6, 37, 62, London, SARS-yellow, SARS-green); type: binding, human; parameters: Binding of serum 6 to linear peptides of protein X1 of SARS-CoV Urbani / Binding of serum 37 to linear peptides of protein X1 of SARS-CoV Urbani / Binding of serum 6 to looped/cyclic peptide (PEPSCAN-ELISA) / Binding of serum 37 to looped/cyclic peptide (PEPSCAN-ELISA) / Binding of serum 37 to looped/cyclic peptides of protein X1 of SARS-CoV Urbani / Binding of serum 6 to linear peptides of protein X2 / Binding of serum 37 to linear peptides of protein X2 / Binding of serum 37 to looped/cyclic peptides of protein X2 of SARS-CoV Urbani / Binding of serum 6 to linear peptides of protein M of SARS-CoV Urbani / Binding of serum 37 to linear peptides of protein M of SARS-CoV Urbani / Binding of serum 6 to looped/cyclic peptides of protein M of SARS-CoV Urbani / Binding of serum 37 to looped/cyclic peptides of protein M of SARS-CoV Urbani / Binding of serum 6 to linear peptides of protein X3 of SARS-CoV Urbani / Binding of serum 37 to linear peptides of protein X3 of SARS-CoV Urbani / Binding of serum 37 to looped/cyclic peptides of protein X3 of SARS-CoV Urbani / Binding of serum 6 to linear peptides of protein X4 of SARS-CoV Urbani / Binding of serum 37 to linear peptides of protein X4 of SARS-CoV Urbani / Binding of serum 37 to looped/cyclic peptides of protein X4 of SARS-CoV Urbani / Binding of serum 6 to linear peptides of protein X5 of SARS-CoV Urbani / Binding of serum 37 to linear peptides of protein X5 of SARS-CoV Urbani / Binding of serum 37 to looped/cyclic peptides of protein X5 of SARS-CoV Urbani / Binding of serum 6 to linear peptides of protein N of SARS-CoV Urbani / Binding of serum 37 to linear peptides of protein N of SARS-CoV Urbani / Binding of serum 6 to linear peptide (PEPSCAN-ELISA) / Binding of serum 1a to looped/cyclic peptides of protein N of SARS-CoV Urbani / Binding of serum 1b to looped/cyclic peptides of protein N of SARS-CoV Urbani / Binding of serum 2 to looped/cyclic peptides of protein N of SARS-CoV Urbani / Binding of serum 6 to looped/cyclic peptides of protein N of SARS-CoV Urbani / Binding of serum 37 to looped/cyclic peptides of protein N of SARS-CoV Urbani / Binding of serum 62 to looped/cyclic peptides of protein N of SARS-CoV Urbani / Binding of serum London to looped/cyclic peptides of protein N of SARS-CoV Urbani / Binding of serum SARS-green to looped/cyclic peptides of protein N of SARS-CoV Urbani: unit not given here

LCALGKVLPFHRWHT
0.6: Binding of Control serum LUMC to looped peptides [1] | Binding of serum 1b to linear peptides of protein X5 of SARS-CoV Urbani [3] | Binding of serum 62 to looped/cyclic peptides of protein X5 of SARS-CoV Urbani [3] | Binding of serum SARS-green to linear peptides of protein X5 of SARS-CoV Urbani [3]
0.8: Binding of serum 62 to linear peptides of protein X5 of SARS-CoV Urbani [3]
0.4: Binding of Control Serum Blood-Bank to Looped peptides [1] | Binding of serum 1a to looped/cyclic peptides of protein X5 of SARS-CoV Urbani [3] | Binding of serum 6 to looped/cyclic peptides of protein X5 of SARS-CoV Urbani [3] | Binding of serum 37 to looped/cyclic peptides of protein X5 of SARS-CoV Urbani [3] | Binding of serum SARS-green to looped/cyclic peptides of protein X5 of SARS-CoV Urbani [3] | Binding of serum SARS-yellow to looped/cyclic peptides of protein X5 of SARS-CoV Urbani [3]
0.7: Binding of Control serum Blood-bank to linear peptides [1] | Rabbit serum linear peptides [2] | Rabbit serum looped peptides [2] | Binding of serum 1a to linear peptides of protein X5 of SARS-CoV Urbani [3] | Binding of serum 2 to linear peptides of protein X5 of SARS-CoV Urbani [3] | Binding of serum 37 to linear peptides of protein X5 of SARS-CoV Urbani [3]
0.5: Binding of Control serum LUMC to linear peptides [1] | Binding of serum 2 to looped/cyclic peptides of protein X5 of SARS-CoV Urbani [3] | Binding of serum 6 to linear peptides of protein X5 of SARS-CoV Urbani [3]
0.9: Binding of serum London to linear peptides of protein X5 of SARS-CoV Urbani [3]
0.2: Binding of serum 1b to looped/cyclic peptides of protein X5 of SARS-CoV Urbani [3] | Binding of serum London to looped/cyclic peptides of protein X5 of SARS-CoV Urbani [3] | Binding of serum SARS-yellow to linear peptides of protein X5 of SARS-CoV Urbani [3]

LFIRQEEVQQELYSP
0.4: Rabbit serum linear peptides [2] | Rabbit serum looped peptides [2]
0.8: Binding of Control Serum Blood-Bank to Looped peptides [1] | Binding of Control serum LUMC to looped peptides [1] | Binding of serum 1a to linear peptides of protein X4 of SARS-CoV Urbani [3] | Binding of serum 62 to linear peptides of protein X4 of SARS-CoV Urbani [3] | Binding of serum 62 to looped/cyclic peptides of protein X4 of SARS-CoV Urbani [3] | Binding of serum London to linear peptides of protein X4 of SARS-CoV Urbani [3] | Binding of serum SARS-green to looped/cyclic peptides of protein X4 of SARS-CoV Urbani [3]
0.3: Binding of serum London to looped/cyclic peptides of protein X4 of SARS-CoV Urbani [3]
0.7: Binding of Control serum Blood-bank to linear peptides [1] | Binding of Control serum LUMC to linear peptides [1] | Binding of serum 1a to looped/cyclic peptides of protein X4 of SARS-CoV Urbani [3] | Binding of serum 1b to linear peptides of protein X4 of SARS-CoV Urbani [3] | Binding of serum 2 to looped/cyclic peptides of protein X4 of SARS-CoV Urbani [3] | Binding of serum 37 to linear peptides of protein X4 of SARS-CoV Urbani [3] | Binding of serum 37 to looped/cyclic peptides of protein X4 of SARS-CoV Urbani [3] | Binding of serum SARS-yellow to linear peptides of protein X4 of SARS-CoV Urbani [3] | Binding of serum SARS-yellow to looped/cyclic peptides of protein X4 of SARS-CoV Urbani [3]
0.6: Binding of serum 2 to linear peptides of protein X4 of SARS-CoV Urbani [3] | Binding of serum SARS-green to linear peptides of protein X4 of SARS-CoV Urbani [3]
0.5: Binding of serum 1b to looped/cyclic peptides of protein X4 of SARS-CoV Urbani [3] | Binding of serum 6 to linear peptides of protein X4 of SARS-CoV Urbani [3]
